{"source": "patent EP0385680B1", "about": "“Heterocyclic ethers as 5-lipoxygenase inhibitors” (ZENECA LIMITED, priority 1989, dated 1990)", "key": {"[1]": {"target": "T1, 5-LO (Homo sapiens, UniProt P09917)", "T1 construct": "incubating a test compound with heparinised human blood, prior to challenge with the calcium ionophore A23187; endogenous in cells; host or cells: blood cells in heparinised human whole blood", "T1 sequence (P09917 1-674)": "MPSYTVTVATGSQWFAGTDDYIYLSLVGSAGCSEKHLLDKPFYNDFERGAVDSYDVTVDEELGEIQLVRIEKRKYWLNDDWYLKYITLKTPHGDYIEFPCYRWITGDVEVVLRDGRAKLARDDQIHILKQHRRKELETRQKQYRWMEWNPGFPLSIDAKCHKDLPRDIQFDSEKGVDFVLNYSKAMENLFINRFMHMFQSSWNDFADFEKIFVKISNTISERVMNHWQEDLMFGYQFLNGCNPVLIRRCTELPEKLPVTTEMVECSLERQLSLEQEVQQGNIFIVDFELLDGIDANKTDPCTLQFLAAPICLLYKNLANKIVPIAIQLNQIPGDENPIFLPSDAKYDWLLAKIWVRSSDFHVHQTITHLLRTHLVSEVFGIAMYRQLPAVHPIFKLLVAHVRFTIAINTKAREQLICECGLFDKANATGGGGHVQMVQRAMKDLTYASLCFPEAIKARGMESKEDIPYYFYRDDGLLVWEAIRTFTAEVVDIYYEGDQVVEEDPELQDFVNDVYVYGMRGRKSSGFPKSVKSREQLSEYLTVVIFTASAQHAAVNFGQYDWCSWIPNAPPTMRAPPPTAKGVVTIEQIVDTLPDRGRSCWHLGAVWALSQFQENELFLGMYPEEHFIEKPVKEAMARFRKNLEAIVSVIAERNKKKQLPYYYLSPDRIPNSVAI", "assay": "Test b): in vitro heparinised human blood challenged with calcium ionophore A23187, radioimmunoassay of LTB4", "type": "cell-based", "conditions": "A23187 challenge, read-out: IC₅₀ against LTB₄", "protocol": "(§1) As stated previously, the heterocyclic ethers of the formula I are inhibitors of the enzyme 5-LO. […] This test provides a measure of the intrinsic inhibitory properties against soluble 5-LO in an extracellular environment. • b) An in vitro assay system involving incubating a test compound with heparinised human blood, prior to challenge with the calcium ionophore A23187 and then indirectly measuring the inhibitory effects on 5-LO by assaying the amount of LTB₄ using the specific radioimmunoassay described by Carey and Forder (F. Carey and R.A. Forder, Brit. […] The effects of a test compound on the enzyme cyclooxygenase (which is involved in the alternative metabolic pathway for arachidonic acid and gives rise to prostaglandins, thromboxanes and related metabolites) may be measured at the same time using the specific radioimmunoassay for thromboxane B₂(TxB₂) described by Carey and Forder (see above). […] It permits the selectivity of the inhibitory effect on 5-LO or cyclooxygenase to be assessed. • c) An ex vivo assay system, which is a variation of test b) above, involving administration of a test compound (usually orally as the suspension produced when a solution of the test compound in dimethylsulphoxide is added to carboxymethylcellulose), blood collection, heparinisation, challenge with A23187 and radioimmunoassay of LTB₄ and TxB₂. […]"}, "[2]": {"target": "T2, cyclooxygenase (Homo sapiens, UniProt P23219)", "T2 construct": "against 5-LO and also cyclooxygenase in the presence of blood cells and proteins; endogenous in cells; host or cells: blood cells in heparinised human whole blood", "T2 sequence (P23219 24-599)": "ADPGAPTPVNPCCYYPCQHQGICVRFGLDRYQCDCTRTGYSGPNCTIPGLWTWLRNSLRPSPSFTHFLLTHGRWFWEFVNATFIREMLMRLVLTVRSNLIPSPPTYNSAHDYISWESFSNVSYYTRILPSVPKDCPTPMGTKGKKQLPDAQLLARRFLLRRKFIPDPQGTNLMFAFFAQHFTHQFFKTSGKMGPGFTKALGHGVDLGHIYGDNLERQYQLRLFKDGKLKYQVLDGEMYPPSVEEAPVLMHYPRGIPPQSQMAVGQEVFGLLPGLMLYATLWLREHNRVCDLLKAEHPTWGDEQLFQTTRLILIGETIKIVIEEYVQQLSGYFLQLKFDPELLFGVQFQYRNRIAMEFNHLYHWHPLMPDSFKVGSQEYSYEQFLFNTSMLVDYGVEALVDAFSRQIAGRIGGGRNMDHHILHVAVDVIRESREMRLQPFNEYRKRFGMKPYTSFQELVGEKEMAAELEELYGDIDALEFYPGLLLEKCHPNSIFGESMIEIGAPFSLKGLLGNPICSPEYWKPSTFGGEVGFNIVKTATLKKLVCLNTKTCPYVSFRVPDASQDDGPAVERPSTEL", "assay": "Test b): in vitro heparinised human blood challenged with calcium ionophore A23187, radioimmunoassay of TxB2", "type": "cell-based", "conditions": "A23187 challenge, read-out: IC₅₀ against TxB₂", "protocol": "as §1"}}}
{"compound": "C=CCOCC(CC)(OCC=C)c1cc(F)cc(OCc2ccc3c(ccc(=O)n3C)c2)c1", "note": "(stereo not drawn) [2-allyloxy-2-[5-fluoro-3-(1,2-dihydro-1-methyl-2-oxoquinolin-6-ylmethoxy)phenyl]but-1-yl allyl ether]", "values": [{"measurement": "IC50", "setting": "[1]", "result": 100, "unit": "nM"}]}
{"compound": "CCC(COC)(OC)c1cccc(OCC#Cc2ccccn2)c1", "note": "(stereo not drawn) [2-methoxy-2-[3-(3-(2-pyridyl)prop-2-yn-1-yloxy)phenyl]but-1-yl methyl ether]", "values": [{"measurement": "IC50", "setting": "[1]", "result": 1000, "unit": "nM"}, {"measurement": "IC50", "setting": "[2]", "result": "> 40", "unit": "µM"}]}
